Calls of active or inactive are those of the source. The calls are words filed in the database; no cut-off is given here.
Columns and labels:
[1] = Unbound volume of distribution at steady state in Sprague-Dawley rat at 1 mg/kg, iv measured upto 24 hrs; type: ADME, organism-based; conditions: in vivo
[2] = Intrinsic clearance in human hepatocytes assessed per 10^4 cells at 1 uM measured upto 120 mins by UPLC-MS/MS analysis; type: ADME, cell-based, Hepatocyte; conditions: 2 h
[3] = Oral bioavailability in Sprague-Dawley rat at 3 mg/kg measured upto 24 hrs; type: ADME, organism-based; conditions: in vivo; for F: po, 3 mg/kg, 24 h
[4] = Half-life in Sprague-Dawley rat at 1 mg/kg, iv measured upto 24 hrs; type: ADME, organism-based; conditions: in vivo
[5] = Unbound Cmax in Sprague-Dawley rat at 3 mg/kg, po measured upto 24 hrs; type: ADME, organism-based; conditions: in vivo
[6] = Unbound clearance in Sprague-Dawley rat plasma at 1 mg/kg, iv measured upto 24 hrs; type: ADME, organism-based; conditions: in vivo
[7] = Unbound AUC in Sprague-Dawley rat at 3 mg/kg, po measured upto 24 hrs; type: ADME, organism-based; conditions: in vivo
[8] = Cmax in Sprague-Dawley rat at 3 mg/kg, po measured upto 24 hrs; type: ADME, organism-based; conditions: in vivo
[9] = target: T1, Eukaryotic translation initiation factor 2-alpha kinase 3 (Homo sapiens) (UniProt Q9NZJ5); experiment: Activation of PERK in HEK293 cells transfected with ATF4 response element assessed as unbound effective concentration preincubated for 30 mins followed by tunicamycin addition and measured after 6 hrs by One-Glo reagent based plate reader assay; type: cell-based; conditions: filed as activator, time 6.5 hrs
T1 sequence (whole entry): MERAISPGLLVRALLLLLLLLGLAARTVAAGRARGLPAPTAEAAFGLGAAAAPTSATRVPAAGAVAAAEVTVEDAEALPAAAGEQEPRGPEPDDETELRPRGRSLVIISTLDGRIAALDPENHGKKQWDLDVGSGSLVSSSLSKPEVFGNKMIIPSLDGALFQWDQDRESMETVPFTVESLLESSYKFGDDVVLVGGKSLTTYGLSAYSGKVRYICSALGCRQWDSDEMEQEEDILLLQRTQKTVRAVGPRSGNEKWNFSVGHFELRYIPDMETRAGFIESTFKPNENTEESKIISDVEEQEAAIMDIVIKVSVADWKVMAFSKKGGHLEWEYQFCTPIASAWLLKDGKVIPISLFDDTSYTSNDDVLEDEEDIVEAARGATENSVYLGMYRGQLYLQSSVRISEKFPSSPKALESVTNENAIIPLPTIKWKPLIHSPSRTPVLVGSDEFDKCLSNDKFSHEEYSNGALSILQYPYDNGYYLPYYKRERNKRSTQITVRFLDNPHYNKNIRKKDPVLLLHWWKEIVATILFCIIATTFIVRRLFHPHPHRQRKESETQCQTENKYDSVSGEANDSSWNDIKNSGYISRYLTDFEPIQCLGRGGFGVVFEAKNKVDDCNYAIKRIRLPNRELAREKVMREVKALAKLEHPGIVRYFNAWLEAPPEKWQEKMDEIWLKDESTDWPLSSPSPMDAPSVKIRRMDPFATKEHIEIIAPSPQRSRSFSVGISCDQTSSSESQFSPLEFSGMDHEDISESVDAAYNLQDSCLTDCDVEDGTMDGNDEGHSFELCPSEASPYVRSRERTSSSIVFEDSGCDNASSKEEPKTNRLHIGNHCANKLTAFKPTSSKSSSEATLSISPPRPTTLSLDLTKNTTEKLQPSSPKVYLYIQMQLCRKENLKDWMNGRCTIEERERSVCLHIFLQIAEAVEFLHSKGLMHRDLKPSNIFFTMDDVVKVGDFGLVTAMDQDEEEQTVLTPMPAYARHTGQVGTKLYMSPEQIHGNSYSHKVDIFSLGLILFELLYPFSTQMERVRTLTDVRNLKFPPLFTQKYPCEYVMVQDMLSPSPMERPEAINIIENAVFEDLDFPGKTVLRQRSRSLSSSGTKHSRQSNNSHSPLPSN

[10] = Volume of distribution at steady state in Sprague-Dawley rat at 1 mg/kg, iv measured upto 24 hrs; type: ADME, organism-based; conditions: in vivo, read-out: Vdss
[11] = Intrinsic clearance in rat hepatocytes assessed per 10^4 cells at 1 uM measured upto 120 mins by UPLC-MS/MS analysis; type: ADME, cell-based, Hepatocyte; conditions: 2 h
[12] = Protein binding in HEK293 cells assessed as free fraction; type: ADME, cell-based; conditions: human
[13] = Unbound fraction in Sprague-Dawley rat plasma at 1 mg/kg, iv measured upto 24 hrs; type: ADME, organism-based
[14] = target: T2, Eukaryotic translation initiation factor 2-alpha kinase 3 (Homo sapiens, UniProt Q9NZJ5); experiment: Activation of PERK in HEK293 cells transfected with ATF4 response element preincubated for 30 mins followed by tunicamycin addition and measured after 6 hrs by One-Glo reagent based plate reader assay; type: cell-based
T2 sequence (Q9NZJ5 whole entry): T1 sequence (whole entry)

physchem = conditions: 1-octanol/PBS, pH 7.4
Mus musculus [15] = experiment: In vivo activation of GCN2 in BALB/c nude mouse xenografted with human HT-1080 cells assessed as […] ATF4 protein level in tumor at 0.3 to 3 mg/kg after 6 hrs; type: functional, organism-based; conditions: dose 0.3-3 mg/kg
MOLM-16 = experiment: Antitumor activity against human MOLM16 cells xenografted in BALB/c nude mouse assessed as reduction in tumor growth at 1 to 3 mg/kg administered twice a day for 17 days; type: functional, organism-based; conditions: dose 1-3 mg/kg, time 17.0 day
Mus musculus [16] = experiment: In vivo activation of GCN2 in BALB/c nude mouse xenografted with human HT-1080 cells assessed as […] ASNS protein level in tumor at 0.3 to 3 mg/kg after 6 hrs; type: functional, organism-based; conditions: dose 0.3-3 mg/kg
eIF-2-alpha kinase GCN2 [17] = target: T3, eIF-2-alpha kinase GCN2 (Homo sapiens, UniProt Q9P2K8); experiment: Activation of GCN2 in HEK293 cells transfected with ATF4 response element preincubated for 30 mins followed by halofuginone addition and measured after 6 hrs by One-Glo reagent based plate reader assay; type: cell-based
T3 sequence (Q9P2K8 whole entry): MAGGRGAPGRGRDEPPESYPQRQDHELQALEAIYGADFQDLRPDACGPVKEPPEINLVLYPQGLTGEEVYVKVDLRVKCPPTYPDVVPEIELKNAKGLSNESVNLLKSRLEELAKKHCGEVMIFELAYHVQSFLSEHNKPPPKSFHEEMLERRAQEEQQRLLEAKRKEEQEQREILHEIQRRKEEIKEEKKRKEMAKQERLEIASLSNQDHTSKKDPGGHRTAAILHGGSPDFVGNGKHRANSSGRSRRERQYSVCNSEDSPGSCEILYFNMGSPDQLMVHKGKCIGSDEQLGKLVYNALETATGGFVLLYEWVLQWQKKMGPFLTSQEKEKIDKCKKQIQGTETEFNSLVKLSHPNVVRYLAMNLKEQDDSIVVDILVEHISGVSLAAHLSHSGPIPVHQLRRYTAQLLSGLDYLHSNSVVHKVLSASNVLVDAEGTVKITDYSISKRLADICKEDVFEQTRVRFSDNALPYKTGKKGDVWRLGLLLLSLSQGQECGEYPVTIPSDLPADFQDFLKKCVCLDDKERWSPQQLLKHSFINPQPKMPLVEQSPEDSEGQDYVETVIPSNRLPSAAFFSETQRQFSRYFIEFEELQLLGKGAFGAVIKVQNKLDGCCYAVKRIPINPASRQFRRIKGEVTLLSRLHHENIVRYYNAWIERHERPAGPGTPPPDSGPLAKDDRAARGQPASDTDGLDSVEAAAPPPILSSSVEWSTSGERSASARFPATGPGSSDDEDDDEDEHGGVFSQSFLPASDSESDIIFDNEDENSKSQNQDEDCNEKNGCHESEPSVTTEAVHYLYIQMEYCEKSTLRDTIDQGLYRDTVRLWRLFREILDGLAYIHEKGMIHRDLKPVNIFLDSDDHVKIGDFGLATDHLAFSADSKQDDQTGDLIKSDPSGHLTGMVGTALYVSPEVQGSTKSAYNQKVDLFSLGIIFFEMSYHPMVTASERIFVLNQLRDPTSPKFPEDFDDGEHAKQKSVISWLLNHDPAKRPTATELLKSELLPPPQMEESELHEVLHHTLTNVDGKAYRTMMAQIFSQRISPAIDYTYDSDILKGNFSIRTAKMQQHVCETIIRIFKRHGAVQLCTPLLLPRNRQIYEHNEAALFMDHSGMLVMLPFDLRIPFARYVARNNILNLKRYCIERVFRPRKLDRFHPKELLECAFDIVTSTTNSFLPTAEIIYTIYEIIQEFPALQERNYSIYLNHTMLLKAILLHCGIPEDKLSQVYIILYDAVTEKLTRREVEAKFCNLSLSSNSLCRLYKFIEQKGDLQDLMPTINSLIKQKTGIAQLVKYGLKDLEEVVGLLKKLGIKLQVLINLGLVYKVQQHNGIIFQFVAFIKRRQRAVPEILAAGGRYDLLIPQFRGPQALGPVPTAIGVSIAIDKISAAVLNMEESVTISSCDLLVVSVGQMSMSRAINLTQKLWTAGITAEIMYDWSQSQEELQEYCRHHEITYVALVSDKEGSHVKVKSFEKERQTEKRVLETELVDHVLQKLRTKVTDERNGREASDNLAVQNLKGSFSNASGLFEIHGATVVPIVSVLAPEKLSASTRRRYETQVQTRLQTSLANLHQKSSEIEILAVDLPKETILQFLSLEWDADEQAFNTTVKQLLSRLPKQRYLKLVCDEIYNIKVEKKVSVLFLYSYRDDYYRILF

eIF-2-alpha kinase GCN2 [18] = target: T3, eIF-2-alpha kinase GCN2; experiment: Inhibition of GCN2 (unknown origin) using GFP-eIF2alpha as substrate incubated for 1.5 hrs in presence of ATP by plate reader analysis
eIF-2-alpha kinase GCN2 [19] = target: T3, eIF-2-alpha kinase GCN2; conditions: HEK293, filed as activator, time 6.5 hrs
Cytochrome P450 3A4 = Cytochrome P450 3A4 (Homo sapiens, UniProt P08684); experiment: Inhibition of CYP3A4 in human liver microsomes using midazolam substrate incubated for 5 mins in presence of NADPH by UPLC-MS/MS analysis
Chain of Cytochrome P450 3A4 (P08684 whole entry): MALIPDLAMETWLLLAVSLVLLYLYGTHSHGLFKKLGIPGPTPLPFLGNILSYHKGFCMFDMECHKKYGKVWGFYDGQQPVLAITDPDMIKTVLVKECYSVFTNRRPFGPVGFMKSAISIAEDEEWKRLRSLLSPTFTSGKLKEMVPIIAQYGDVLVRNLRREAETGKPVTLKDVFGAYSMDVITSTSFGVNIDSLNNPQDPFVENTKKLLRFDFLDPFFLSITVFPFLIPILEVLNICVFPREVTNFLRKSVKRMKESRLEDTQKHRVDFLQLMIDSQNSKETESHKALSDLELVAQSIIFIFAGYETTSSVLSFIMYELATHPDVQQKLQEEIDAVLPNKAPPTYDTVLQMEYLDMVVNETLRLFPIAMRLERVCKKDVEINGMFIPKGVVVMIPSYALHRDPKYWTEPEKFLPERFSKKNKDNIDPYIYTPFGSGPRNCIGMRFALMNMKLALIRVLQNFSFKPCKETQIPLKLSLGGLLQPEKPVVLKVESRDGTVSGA

| SMILES | fVdss [1] | CLH [2] | F [3] | half-life [4] | fCmax [5] | CL free [6] | fAUC [7] | Cmax [8] | fEC50 [9] | Vd [10] | CLH [11] | fraction unbound [12] | fraction unbound at 24 h [13] | EC50 [14] | logD at 1 h (physchem) | also measured |
| --- | --- | --- | --- | --- | --- | --- | --- | --- | --- | --- | --- | --- | --- | --- | --- | --- |
| CNC(=O)c1n[nH]c2c(F)c(-c3c(F)ccc(NS(=O)(=O)c4cc(Cl)cnc4OC)c3F)ccc12 | 56 L/kg | 5.8 µL/min | 25% | 8.9 h | 20 nM | 88 mL/min/kg | 0.13 µM·h | 10.4 µM | 180 nM | 0.11 L/kg | 11 µL/min | 0.03 | 0.002 | 6100 nM |  |  |
| CNC(=O)c1ncn2nc(-c3c(F)ccc(NS(=O)(=O)c4cc(Cl)cnc4OC)c3F)ccc12 |  | 3.8 µL/min |  |  |  |  |  |  | 280 nM |  | 5.9 µL/min | 0.32 |  | 870 nM |  |  |
| CNC(=O)c1ncn2c1CC[C@H](c1c(F)ccc(NS(=O)(=O)c3cc(F)cnc3OC)c1F)C2 | 15 L/kg | 7.8 µL/min | 95% | 0.9 h | 180 nM | 340 mL/min/kg | 0.14 µM·h | 14.2 µM | 1000 nM | 0.19 L/kg | 13 µL/min | 0.71 | 0.012 | 1500 nM |  |  |
| CNC(=O)c1ncn2c1CC[C@H](c1c(F)ccc(NS(=O)(=O)c3cc(Cl)cnc3OC)c1F)C2 |  |  |  |  |  |  |  |  | 240 nM |  |  | 0.45 |  | 460 nM |  | EC50 (eIF-2-alpha kinase GCN2 [17]): 240 nM; IC50 (eIF-2-alpha kinase GCN2 [18]): 69 nM; fEC50 (eIF-2-alpha kinase GCN2 [19]): 110 nM; IC50 (Cytochrome P450 3A4): 33000 nM |
| CNC(=O)c1ncn2cc(-c3c(F)ccc(NS(=O)(=O)c4cc(F)cnc4C)c3F)ccc12 |  |  |  |  |  |  |  |  |  |  |  |  |  | 5800 nM | 1.9 |  |
| CNC(=O)c1ncn2cc(-c3c(F)ccc([N-]S(=O)(=O)c4cc(Cl)cnc4OC)c3F)ncc12.[K+] |  |  |  |  | 28 nM |  | 0.14 µM·h | 40 µM |  |  |  |  |  |  |  | bioavailability ([3]; Sprague-Dawley): 88% |

Continued, in another order:

| fVdss [1] | CLH [2] | F [3] | half-life [4] | fCmax [5] | CL free [6] | fAUC [7] | Cmax [8] | fEC50 [9] | Vd [10] | CLH [11] | fraction unbound [12] | fraction unbound at 24 h [13] | EC50 [14] | logD at 1 h (physchem) | SMILES | also measured |
| --- | --- | --- | --- | --- | --- | --- | --- | --- | --- | --- | --- | --- | --- | --- | --- | --- |
| 320 L/kg | 9 µL/min | 54% | 4.3 h | 6.2 nM | 930 mL/min/kg | 0.029 µM·h | 20.6 µM | 1100 nM | 0.1 L/kg | 9.8 µL/min | 0.22 | 0.001 | 4900 nM |  | CNC(=O)c1ncn2cc(-c3c(F)ccc(NS(=O)(=O)c4cc(Cl)cnc4OC)c3F)ccc12 |  |
|  |  |  |  |  |  |  |  |  |  |  |  |  | > 10000 nM | 2.3 | CNC(=O)c1ncn2cc(-c3c(F)ccc(NS(=O)(=O)c4cc(F)cnc4OC)c3F)ccc12 |  |
|  |  |  |  |  |  |  |  |  |  |  |  |  | > 10000 nM | 1.6 | CNC(=O)c1ncn2cc(-c3c(F)ccc(NS(=O)(=O)c4cc(C#N)cnc4OC)c3F)ccc12 |  |
|  |  |  |  |  |  |  |  | 350 nM |  |  |  |  | 1500 nM | 3 | CNC(=O)c1ncn2c(F)c(-c3c(F)ccc(NS(=O)(=O)c4cc(Cl)cnc4OC)c3F)ccc12 |  |
|  |  |  |  |  |  |  |  | 2400 nM |  |  |  |  |  |  | CNC(=O)c1ncn2cc(-c3c(F)ccc(NS(=O)(=O)c4cc(Cl)cnc4OC)c3F)ncc12 | Activity (Mus musculus [15]): Active; Activity (MOLM-16): Active; Activity (Mus musculus [16]): Active |
| 93 L/kg | 2.8 µL/min | 70% | 2.4 h | 16 nM | 390 mL/min/kg | 0.093 µM·h | 14.3 µM | 170 nM | 0.1 L/kg | 15 µL/min | 0.1 | 0.001 | 1700 nM |  | COc1ncc(Cl)cc1S(=O)(=O)Nc1ccc(F)c(-c2ccc3c(-c4ncc[nH]4)ncn3c2)c1F |  |
| 180 L/kg | 4.4 µL/min | 1.5% | 3.8 h | 0.31 nM | 740 mL/min/kg | 0.0011 µM·h | 0.62 µM | 55 nM | 0.09 L/kg | 8.2 µL/min | 0.04 | 0.001 | 1400 nM |  | COc1ncc(Cl)cc1S(=O)(=O)Nc1ccc(F)c(-c2ccc3c(-c4ncc[nH]4)n[nH]c3c2F)c1F |  |

— ChEMBL document CHEMBL5543122, “Discovery of HC-7366: An Orally Bioavailable and Efficacious GCN2 Kinase Activator” (J Med Chem, 2024)
